We go through 20 compounds from ChEMBL document CHEMBL1155928, “Synthesis and structure-activity relationships of berberine analogues as a novel class of low-density-lipoprotein receptor up-regulators” (2008).

The subject of the test is HepG2. The test can be described thus: Upregulation of LDLR mRNA expression in human HepG2 cells after 8 hrs by RT-PCR relative to control. The format is functional.
Take `CCOc1ccc2cc3[n+](cc2c1OCC)CCc1cc2c(cc1-3)OCO2.[Cl-]`: the Activity came to 2.13. On to `CCOc1cc2c[n+]3c(cc2cc1OC)-c1cc2c(cc1CC3)OCO2.[Cl-]`, for which the Activity came to 2.17.

`CCCOc1cc2cc3[n+](cc2cc1OC)CCc1cc2c(cc1-3)OCO2.[Cl-]` yielded an Activity of 2.35. In turn, `CCOc1cc2cc3[n+](cc2cc1OC)CCc1cc2c(cc1-3)OCO2.[Cl-]` had an Activity of 2.1. Then `CCCOc1ccc2cc3[n+](cc2c1OC)CCc1cc2c(cc1-3)OCO2.[Cl-]`, with 2.3; and `[Cl-].c1ccc2c[n+]3c(cc2c1)-c1cc2c(cc1CC3)OCO2`, with 2.95.

As to `CCCOc1cc2c[n+]3c(cc2cc1OC)-c1cc2c(cc1CC3)OCO2.[Cl-]`, the Activity came to 1.94. Then `COc1cc2cc3[n+](cc2cc1OC)CCc1cc2c(cc1-3)OCO2.[Cl-]` [PSEUDOBERBERINE], with 8.5; and `CCOc1ccc2cc3[n+](cc2c1)CCc1cc2c(cc1-3)OCO2.[Cl-]`, with 2.9.

`COc1cc2cc3[n+](cc2cc1O)CCc1cc2c(cc1-3)OCO2.[Cl-]` displayed an Activity of 1.6. Then `COc1cc2c[n+]3c(cc2cc1O)-c1cc2c(cc1CC3)OCO2.[Cl-]`, with 2.2; and `COc1ccc2cc3[n+](cc2c1)CCc1cc2c(cc1-3)OCO2.[Cl-]`, with 2.

`CCOc1cc2c[n+]3c(cc2cc1O)-c1cc2c(cc1CC3)OCO2.[Cl-]` yielded an Activity of 1.8.

Compound `Oc1ccc2cc3[n+](cc2c1)CCc1cc2c(cc1-3)OCO2.[Cl-]` came in with an Activity of 5.16. Then `COc1ccc2cc3[n+](cc2c1OC)CCc1cc2c(cc1-3)OCO2.[Cl-]` [BERBERINE CHLORIDE], with 5.3; and `CCOc1ccc2cc3[n+](cc2c1OC)CCc1cc2c(cc1-3)OCO2.[Cl-]`, with 2.35. Then `COc1cc2c[n+]3c(cc2c(OC)c1OC)-c1cc2c(cc1CC3)OCO2.[Cl-]`, with 3.01; and `COc1cc2cc3[n+](cc2c(OC)c1OC)CCc1cc2c(cc1-3)OCO2.[Cl-]`, with 3.16; and `CCCOc1ccc2cc3[n+](cc2c1OCCC)CCc1cc2c(cc1-3)OCO2.[Cl-]`, with 2.21. Then `CCCOc1ccc2cc3[n+](cc2c1)CCc1cc2c(cc1-3)OCO2.[Cl-]`, with 2.13.
